Results from patent US20080119463A1, “4-Anilino-3-quinolinecarbonitriles for the treatment of acute myelogenous leukemia (AML)” (Wyeth, priority 2006, published 2008).
Read-outs that look alike come from different tables or passages of the source.

Tests used:
[1] = test system: U937 cells; test: proliferation assay of human AML cell line U937 (Cell Titer Glo, 3 days); type: cell-based; conditions: 3 days growth, Cell Titer Glo luminescence, read-out: IC50 (μM) from proliferation assays of human AML cell lines
Description: (§1) These compounds were prepared according to previously published methods (Boschelli, D. H., et. al., J. Med. Chem., 44, 3965 (2001); Boschelli, D. H., et. al., J. Med. Chem., 44, 822 (2001); Boschelli, D. H., et. al., Bioorg. Med. Chem. Lett., 13, 3797 (2003); Boschelli, D. H., et. al., J. Med. Chem., 47, 1599 (2004); and Ye, F. et al., 221st National Meeting of the American Chemical Society, San Diego, Calif. (April, 2001)), hereby incorporated by reference. For this study, 1×10^2 to 1×10^3 cells were plated in 95 μl of growth medium in each well of a 96-well microtiter plate. Compounds were added in 5 μl of medium such that the final concentration of DMSO in the medium was 0.25%. Cells were allowed to grow in a cell culture incubator (37° C.) for 3 days, at which time 100 μl of Promega Cell Titer Glo agent was added. Luminescence (lum) was measured in an Envision microplate reader. Data were processed by first obtaining % inhibition (100−(lum+cpd/lum−cpd); cpd […]). The data were then analyzed with the LSW IC50 calculation model ligand-receptor binding/hyperbolic (y=Bmax/(1+(x/IC50)). The IC50 is the concentration of test compound needed to reduce the total amount of cell proliferation by 50%.
For relevant experiments described above, standard growth medium for a particular cell line was used. For example, the growth medium for U937 cells is: RPMI 1640 supplemented with glutamine, 10% fetal bovine serum, and 50 μg/ml of gentamicin.

[2] = test system: KG-1a cells; test: proliferation assay of human AML cell line KG-1a (Cell Titer Glo, 3 days); type: cell-based; conditions: 72 h, 3 days growth, Cell Titer Glo luminescence, read-out: IC50 (μM) from proliferation assays of human AML cell lines
Description: as §1
For relevant experiments described above, standard growth medium for a particular cell line was used. […]

SMILES | IC50 ([1]; Homo sapiens, U-937, 72 h) [µM] | further results
COc1cc(Nc2c(C#N)cnc3cc(-c4ccc(CN5CCOCC5)cn4)ccc23)c(Cl)cc1Cl [4-(2,4-dichloro-5-methoxy-anilino)-7-{5-[(4-morpholinyl)-methyl]-2-pyridinyl]-quinoline-3-carbonitrile] | 0.73 | –
COc1cc(Nc2c(C#N)cnc3cc(-c4coc(CN5CCN(C)CC5)c4)c(OC)cc23)c(Cl)cc1Cl [4-[(2,4-dichloro-5-methoxy-phenyl)amino]-6-methoxy-7-{5-[(4-methyl-piperazin-1-yl)methyl]-3-furyl}-quinoline-3-carbonitrile] | – | IC50 [2]: 0.78 µM
COc1cc2cc3c(Nc4cc(OC)c(OC)c(OC)c4)c(C#N)cnc3cc2cc1OCCN1CCOCC1 [4-(3,4,5-methoxy-anilino)-7-methoxy-8-[2-(4-morpholinyl)-ethoxy]-benzo[g]-quinoline-3-carbonitrile] | – | IC50 [1]: 2.1 µM
COc1cc(Nc2c(C#N)cnc3cc(-c4ccc(CN5CCN(C)CC5)cn4)ccc23)c(Cl)cc1Cl [4-(2,4-dichloro-5-methoxy-anilino)-7-{5-[(4-methyl-piperazin-1-yl)-methyl]-2-pyridinyl]-quinoline-3-carbonitrile] | 2.4 | –
COc1cc(Nc2c(C#N)cnc3cc4cc(OCCN5CCOCC5)c(OC)cc4cc23)c(Cl)cc1Cl [4-(2,4-dichloro-5-methoxy-anilino)-7-methoxy-8-[2-(4-morpholinyl)-ethoxy]-benzo[g]-quinoline-3-carbonitrile] | 5.1 | –
COc1cc(Nc2c(C#N)cnc3cc(OCCCN4CCN(C)CC4)c(OC)cc23)c(Cl)cc1Cl [4-[(2,4-dichloro-5-methoxy-phenyl)amino]-6-methoxy-7-[3-(4-methyl-piperazin-1-yl)-propoxy]-quinoline-3-carbonitrile] | – | IC50 [2]: 1.11 µM
COc1cc(Nc2c(C#N)cnc3cc4cc(OCCN5CCOCC5)c(OC)cc4cc23)c(Cl)cc1C [4-(2-chloro-4 methyl-5-methoxy-anilino)-7-methoxy-8-[2-(4-morpholinyl)-ethoxy]-benzo[g]-quinoline-3-carbonitrile] | 1.2 | –
